We go through eight compounds from ChEMBL document CHEMBL1142021, “Aglycon specificity profiling of alpha-glucosidases using synthetic probes” (Bioorg Med Chem Lett, 2005).

Experiment [1] has as its target T1, Alpha-glucosidase (Oryza sativa Japonica Group) (UniProt Q9LGC6).
T1 sequence (whole entry): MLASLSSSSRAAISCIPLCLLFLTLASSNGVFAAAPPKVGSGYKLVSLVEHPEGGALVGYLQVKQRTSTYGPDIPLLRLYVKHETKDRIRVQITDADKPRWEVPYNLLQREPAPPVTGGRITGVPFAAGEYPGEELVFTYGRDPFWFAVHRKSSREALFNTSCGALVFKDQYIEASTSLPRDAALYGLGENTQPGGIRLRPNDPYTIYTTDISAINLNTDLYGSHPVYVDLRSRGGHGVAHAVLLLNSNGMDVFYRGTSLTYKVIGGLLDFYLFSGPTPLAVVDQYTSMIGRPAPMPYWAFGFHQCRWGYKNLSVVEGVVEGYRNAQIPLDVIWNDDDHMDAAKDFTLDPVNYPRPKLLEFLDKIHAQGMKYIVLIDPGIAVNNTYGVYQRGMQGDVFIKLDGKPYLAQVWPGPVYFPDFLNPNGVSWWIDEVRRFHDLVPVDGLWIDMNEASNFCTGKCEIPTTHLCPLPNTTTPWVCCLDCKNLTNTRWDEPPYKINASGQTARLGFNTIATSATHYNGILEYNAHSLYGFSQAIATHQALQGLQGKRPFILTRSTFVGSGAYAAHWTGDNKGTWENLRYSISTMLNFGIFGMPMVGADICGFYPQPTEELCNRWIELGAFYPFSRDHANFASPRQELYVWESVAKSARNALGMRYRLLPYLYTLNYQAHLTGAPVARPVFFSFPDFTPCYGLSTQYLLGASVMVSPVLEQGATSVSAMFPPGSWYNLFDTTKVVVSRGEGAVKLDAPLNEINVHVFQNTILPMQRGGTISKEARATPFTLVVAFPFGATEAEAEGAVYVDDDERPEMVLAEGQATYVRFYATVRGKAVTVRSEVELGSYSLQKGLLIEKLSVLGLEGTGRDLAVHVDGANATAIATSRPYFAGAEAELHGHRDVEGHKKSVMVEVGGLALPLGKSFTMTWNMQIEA
The experiment in a line: Inhibition of Rice glucosidase (of family 31 alpha-glucosidase) at 1 umol/mL.

In experiment [2] the target is T2, Alpha-glucosidase (Aspergillus niger) (UniProt P56526).
T2 sequence (whole entry): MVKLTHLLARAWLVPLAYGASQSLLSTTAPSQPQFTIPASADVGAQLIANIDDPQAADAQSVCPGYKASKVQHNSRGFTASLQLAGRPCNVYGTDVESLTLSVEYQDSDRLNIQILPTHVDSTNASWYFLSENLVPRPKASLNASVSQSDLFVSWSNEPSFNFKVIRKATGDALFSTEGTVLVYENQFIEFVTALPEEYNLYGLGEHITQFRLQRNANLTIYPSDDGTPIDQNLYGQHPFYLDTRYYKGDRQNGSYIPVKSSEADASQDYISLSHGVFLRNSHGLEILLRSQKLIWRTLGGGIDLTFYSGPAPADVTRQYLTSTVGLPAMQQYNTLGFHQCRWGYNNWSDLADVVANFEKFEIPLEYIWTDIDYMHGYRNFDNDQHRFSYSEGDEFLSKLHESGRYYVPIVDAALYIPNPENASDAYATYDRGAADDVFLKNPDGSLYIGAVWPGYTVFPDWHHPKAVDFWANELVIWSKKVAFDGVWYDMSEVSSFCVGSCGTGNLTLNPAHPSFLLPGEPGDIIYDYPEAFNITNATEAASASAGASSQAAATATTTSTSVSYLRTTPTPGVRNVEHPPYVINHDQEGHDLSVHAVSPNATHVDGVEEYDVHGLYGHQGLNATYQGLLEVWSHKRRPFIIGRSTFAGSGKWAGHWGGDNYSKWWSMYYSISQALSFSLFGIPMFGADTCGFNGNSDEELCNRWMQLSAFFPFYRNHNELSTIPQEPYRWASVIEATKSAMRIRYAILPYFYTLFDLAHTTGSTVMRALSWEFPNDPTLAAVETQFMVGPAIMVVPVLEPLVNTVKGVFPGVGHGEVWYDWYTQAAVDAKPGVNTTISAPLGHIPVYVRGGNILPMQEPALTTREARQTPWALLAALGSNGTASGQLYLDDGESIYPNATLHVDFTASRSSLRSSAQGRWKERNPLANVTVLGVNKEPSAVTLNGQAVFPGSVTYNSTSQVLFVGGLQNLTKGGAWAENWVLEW
As to the kind of experiment: Inhibition of Aspergillus niger glucosidase (of family 31 alpha-glucosidase) at 1 umol/mL.

The target of experiment [3] is T3, Mannosyl-oligosaccharide glucosidase (Homo sapiens) (UniProt Q13724).
T3 sequence (whole entry): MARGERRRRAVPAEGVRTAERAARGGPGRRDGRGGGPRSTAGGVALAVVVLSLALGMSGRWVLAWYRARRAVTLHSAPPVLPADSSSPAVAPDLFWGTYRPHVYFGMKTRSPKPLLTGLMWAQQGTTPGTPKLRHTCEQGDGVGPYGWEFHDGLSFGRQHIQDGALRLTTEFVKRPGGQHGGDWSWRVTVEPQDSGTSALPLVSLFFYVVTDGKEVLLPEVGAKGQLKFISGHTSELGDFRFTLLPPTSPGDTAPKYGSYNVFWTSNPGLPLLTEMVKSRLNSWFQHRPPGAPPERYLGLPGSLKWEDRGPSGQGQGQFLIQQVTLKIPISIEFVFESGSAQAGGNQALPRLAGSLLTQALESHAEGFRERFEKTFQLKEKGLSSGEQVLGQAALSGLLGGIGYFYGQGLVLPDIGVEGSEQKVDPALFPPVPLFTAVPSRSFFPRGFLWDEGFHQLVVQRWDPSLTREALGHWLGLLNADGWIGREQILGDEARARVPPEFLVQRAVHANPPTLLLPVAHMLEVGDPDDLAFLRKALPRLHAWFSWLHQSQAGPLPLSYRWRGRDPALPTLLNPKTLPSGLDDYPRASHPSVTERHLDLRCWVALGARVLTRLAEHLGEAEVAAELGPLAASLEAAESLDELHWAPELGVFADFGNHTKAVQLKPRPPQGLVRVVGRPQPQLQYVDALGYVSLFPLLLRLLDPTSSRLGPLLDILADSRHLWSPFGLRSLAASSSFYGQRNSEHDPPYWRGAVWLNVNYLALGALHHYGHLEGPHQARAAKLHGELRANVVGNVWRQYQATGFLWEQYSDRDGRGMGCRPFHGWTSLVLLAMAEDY
As to the kind of experiment: Inhibition of Glucosidase 1 (of Endoplasmic reticulum processing alpha-glucosidase) at 2 umol/mL.

For `CC(=O)NCC1OC(CO)C(O)C(O)C1O` (stereo not drawn), the inhibition (in general, the change of the read-out against control, counted positive when it falls) was 21.8% in experiment [1], 23.3% in experiment [2] and less than 1% in experiment [3].
Regarding `CC(C)(C)C(=O)NCC1OC(CO)C(O)C(O)C1O` (stereo not drawn), the values for the inhibition in experiment [1], in experiment [2] and in experiment [3] were 3.8%, 1.2% and less than 1%, respectively.
Consider `O=C(NCC1OC(CO)C(O)C(O)C1O)c1ccccc1` (stereo not drawn), for which the inhibition in experiment [1] stood at 16%; in experiment [2] it was 14%.
For the compound `O=C(CCCO)NCC1OC(CO)C(O)C(O)C1O` (stereo not drawn), the inhibition is 7.6% in experiment [1], less than 1% in experiment [2] and less than 1% in experiment [3].
Consider `O=C(CCCCO)NCC1OC(CO)C(O)C(O)C1O` (stereo not drawn), for which the inhibition in experiment [1] is 18.3%; in experiment [2], 6.8%; in experiment [3] it was less than 1%.
The matching figures for `O=C(CCO)NCC1OC(CO)C(O)C(O)C1O` (stereo not drawn): 8.5%, 2.6% and less than 1%.
The matching figures for `O=C(CCCCCO)NCC1OC(CO)C(O)C(O)C1O` (stereo not drawn): 26%, less than 1% and less than 1%.
On to `O=C(CO)NCC1OC(CO)C(O)C(O)C1O` (stereo not drawn), for which the inhibition in experiment [1] was 10.7%; in experiment [2], 6.6%; in experiment [3] it was less than 1%.
